From doi:10.1101/2020.05.21.106633v1 (bioRxiv, 2020)
pKd: −log10 of the molar value. Non-standard residues stand in square brackets, D forms with d. Residues, ends and D or L forms follow the SMILES beside them. *: point of attachment. FITC = O=C1OC2(c3ccc(O)cc3Oc3cc(O)ccc32)c2ccc(NC(=S)*)cc21; Ahx = NCCCCCC(=O)O

Tests used:
[1] = molecular target: T1, recombinant dg-Bcan protein (deglycosylated recombinant human brevican) (Homo sapiens, UniProt Q96GW7); assay: Octet binding kinetic analysis; conditions: for Rmax (maximal response in response unit): Octet steady state analysis, one site specific binding fit
T1 sequence (Q96GW7 23-911): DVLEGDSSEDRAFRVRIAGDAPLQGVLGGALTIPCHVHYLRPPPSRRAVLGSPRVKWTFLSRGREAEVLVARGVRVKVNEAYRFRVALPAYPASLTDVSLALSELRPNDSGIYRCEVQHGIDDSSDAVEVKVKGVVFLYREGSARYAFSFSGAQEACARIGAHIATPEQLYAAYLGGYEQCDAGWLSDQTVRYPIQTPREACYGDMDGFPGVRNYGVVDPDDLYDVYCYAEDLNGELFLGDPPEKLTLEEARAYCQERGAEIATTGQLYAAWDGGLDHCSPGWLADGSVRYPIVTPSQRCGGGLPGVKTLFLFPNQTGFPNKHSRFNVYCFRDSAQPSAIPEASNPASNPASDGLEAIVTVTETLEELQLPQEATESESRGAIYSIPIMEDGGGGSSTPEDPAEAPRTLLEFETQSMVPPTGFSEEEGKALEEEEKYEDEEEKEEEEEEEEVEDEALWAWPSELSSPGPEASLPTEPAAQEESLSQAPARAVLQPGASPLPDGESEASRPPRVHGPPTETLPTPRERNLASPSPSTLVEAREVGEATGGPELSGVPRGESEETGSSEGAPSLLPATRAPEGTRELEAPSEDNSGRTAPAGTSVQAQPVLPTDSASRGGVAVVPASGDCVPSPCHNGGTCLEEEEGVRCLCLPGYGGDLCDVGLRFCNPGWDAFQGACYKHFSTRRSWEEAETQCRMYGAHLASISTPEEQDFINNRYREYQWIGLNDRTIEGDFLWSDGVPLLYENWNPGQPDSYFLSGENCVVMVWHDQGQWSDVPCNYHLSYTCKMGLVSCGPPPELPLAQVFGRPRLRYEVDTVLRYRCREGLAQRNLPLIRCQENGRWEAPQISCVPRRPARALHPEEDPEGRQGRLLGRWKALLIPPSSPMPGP

GBM-6 cells = assay: CellTitre-Glo cell viability assay, GBM-6; type: cell-based, human; conditions: BTP-7 50 µM, 48 hrs, nwell = 3
GBM-6 neurospheres = assay: Collagen cell invasion assay; type: cell-based, human; conditions: BTP-7 50 µM, n = 3

pKd [1] | Compound | Rmax (maximal response in response unit) [1] | effect on GBM-6 proliferation (GBM-6 cells) | effect on GBM-6 invasion in collagen (GBM-6 neurospheres)
– | CC[C@@H](C)[C@@H](NC(=O)[C@@H](C)NC(=O)[C@@H](CCCNC(=N)N)NC(=O)[C@@H](CCC(N)=O)NC(=O)[C@@H](CCCNC(=N)N)NC(=O)[C@@H](CCCNC(=N)N)NC(=O)[C@@H](CC(=O)O)NC(=O)[C@@H](C)N)C(N)=O [BTP-9] (H-[dA][dD][dR][dR][dQ][dR][dA][dI]-NH2; N-terminus and C-terminus assumed) | 0.338 | – | –
5.42 | CC(C)[C@@H](NC(=O)[C@@H](Cc1c[nH]cn1)NC(=O)CNC(=O)[C@@H](Cc1c[nH]c2ccccc12)NC(=O)[C@@H](CCCCN)NC(=O)[C@H](N)[C@H](C)O)C(=O)N[C@H](CC(N)=O)C(=O)N[C@H](CCCCN)C(=O)NCCCCCC(=O)N[C@@H](CCCCNC(=S)Nc1ccc2c(c1)C(=O)OC21c2ccc(O)cc2Oc2cc(O)ccc21)C(N)=O [Fluorescein-conjugated BTP-7] (H-[dT][dK][dW]G[dH][dV][dN][dK][Ahx]K(FITC)-NH2) | – | – | –
– | CC(C)[C@@H](NC(=O)[C@@H](Cc1c[nH]cn1)NC(=O)CNC(=O)[C@@H](Cc1c[nH]c2ccccc12)NC(=O)[C@@H](CCCCN)NC(=O)[C@H](N)[C@H](C)O)C(=O)N[C@H](CC(N)=O)C(=O)N[C@H](CCCCN)C(N)=O [BTP-7] | 0.307 | not affected | not affected
